Test results as given in paper PMC10285648, “iTAG an optimized IMiD-induced degron for targeted protein degradation in human and murine cells” (iScience, 2023).
Peptide text beside a SMILES is read from it. * marks the point of attachment. Cbz = O=C(OCc1ccccc1)*

Experiments:
[1] = system: CT26 cells; assay: Quantitative multiplexed proteomics of CT26 cells treated with thalidomide derivatives; assay type: cell-based, mouse; settings: CT26, 10uM, 24h
Procedure: After showing that iTAG was active in mouse cells, we explored whether more potential degrons were active in the murine context. […]2216[50] and profiled the cellular proteomes using quantitative multiplexed proteomics. […] Data are plotted as Log2 fold change relative to DMSO versus Log10 of p value. (B) Proteome of CT26 CRBN KO cells treated with 10uM of FPFT2216 for 24h analyzed and plotted as in (A). (C) HEK293T, CT26, AT3 and 4434 cells treated with 10uM of FPFT2216 for 24h in presence of absence of MLN4924. […] were analyzed using western blotting. (D) Structural representation of PDE6D with the critical […] highlighted in red. (E) CT26, AT3 and 4434 cells transiently expressing WT or […] mutant Flag-PDE6D treated with 10uM of FPFT2216 for 16h. (F) Docking model for FPFT-2216 (in magenta) in the binding site of mouse CRBN (in orange). H-bond interactions are shown as cyan dashes. (G) Binding model for the ternary complex formed by mouse CRBN (in orange), mouse PDE6D (in cyan) and FPFT-2216 (in magenta), showing the […] loop close to the molecular glue. Samples for quantitative proteomics were prepared using the […] workflow.[60] Briefly, the cell pellets were lysed in a buffer containing 150 μL 0.1 M triethylammonium bicarbonate (TEAB), 1% sodium deoxycholate (SDC), 10% isopropanol, 50mM NaCl, 5 mM tris-2-carboxyethyl phosphine (TCEP), 10 mM iodoacetamide (IAA), universal nuclease, and supplemented with protease and phosphatase inhibitors. Samples were bath sonicated for 5 min, incubated at RT for 45 min and protein concentration was measured with the Bradford Protein Assay (Biorad) according to manufacturer instructions. Aliquots containing 30 μg of total protein were used for protein digestion. The resultant peptides were labeled with a tandem mass tag (TMTpro) multiplex reagent vial (Thermo Scientific) according to the manufacturer instructions. All the TMT-labelled samples were combined in equal amounts to a single tube. The TMT-peptide mixture was acidified with 1% formic acid and the precipitated SDC was removed by centrifugation. The sample was then dried with a centrifugal vacuum concentrator. LC-MS analysis was performed on the Dionex Ultimate 3000 UHPLC system coupled with the Orbitrap Lumos mass spectrometer (Thermo Scientific). Samples were analyzed with the EASY-Spray C18 capillary column (75 μm × 50 cm, 2 μm) at 50°C. […] MS3 quantification was obtained with higher-energy collisional dissociation (HCD) fragmentation of the top 5 most abundant CID fragments isolated with synchronous precursor selection (SPS). […] The SEQUEST-HT search engine was used to analyze the acquired mass spectra in Proteome Discoverer 2.4 (Thermo Scientific) for protein identification and quantification. […]

[2] = system: cMYC-EGFP-DCD23; assay: Degradation of cMYC-EGFP-DCD23 in HMEC (flow cytometry, western blotting); assay type: cell-based, human; settings: co-treatment with CC220 (10μM), 4h, western blotting
Text: (§1) To systematically delineate the optimal DCD/degrader combination for targeted protein degradation, we undertook a matrix approach evaluating all 23 DCD tags against 6 small molecule degraders. […] To control for any potential off-target effects of the IMiD/CeLMOD agents that could indirectly affect the target of interest, we designed controls in which the specific DCD and the EGFP sequences were interspaced by a P2A ribosomal “skipping” sequence,[32] leading to separate translation of the DCD and the target protein (Figure 1A). These constructs were then inserted into a doxycycline-inducible lentiviral vector system and stably expressed in hTERT immortalized human mammary epithelial cells (HMEC), a suitable model to assess the functional consequences of cMYC degradation. cMYC was tagged at the C-terminus end for the initial screening experiments.
(§2) Figure 1 Design and experimental evaluation of the DCD tags (A) Representation of the experimental pipeline used to evaluate the different DCD constructs. […] Median EGFP intensity was measured in each condition using flow cytometry (3 independent experiments, normalized to the control and represented as mean ± SD). […] The protein lysates were probed for cMYC levels using western blotting. […] Target loss was evaluated either by measuring EGFP median intensity using flow cytometry or western blotting for cMYC protein (3 independent experiments, normalized to the control and represented as mean ± SD). […] Target loss was evaluated as in (D) (3 independent experiments, normalized to the control and represented as mean ± SD). […] Protein lysates were collected and probed for cMYC and p21 using western blotting. […] Protein lysates were collected and probed for cMYC and p21 using western blotting. […] These were left out as controls with no test substance.
(§3) Following degrader treatment cells were collected and DAPI was added to the cell suspension at 1 μg/mL to allow the exclusion of dead cells. EGFP signal was measured using BD LSR II flow cytometer (BD Biosciences). FlowJo 10 Software (FlowJo) was used for data processing.
(§4) Cells were lysed with SDS lysis buffer (2% SDS, 10% Glycerol, 50mM Tris pH 6.8) and boiled at 95°C for 30min. Protein concentration was measured using Pierce BCA Protein Assay Kit (ThermoFischer) following manufacturer’s recommendations. Samples were ran in NuPAGETM 10% Bis-Tris Midi electrophoresis gels (Invitrogen) using NuPAGETM MES SDS running buffer (ThermoFischer Scientific).
(§5) For western blotting membranes were blocked in a solution of 5% (w/v) bovine serum albumin (BSA; Sigma-Aldrich) dissolved in TBS-0.1% Tween 20 (Sigma-Aldrich) then incubated at 4°C overnight with the primary antibodies diluted in 5% (w/v) BSA/TBS-T. The membranes where then washed and incubated with anti-mouse and/or anti-rabbit secondary antibodies (LI-COR Biosciences) for 2h at RT diluted in 5% (w/v) BSA/TBS-T then washed and imaged using the LI-COR Odyssey (LI-COR Biosciences). Images were analyzed using Image Studio Lite software (LI-COR Biosciences).

[3] = system: N-terminally tagged EGFP; assay: Flow cytometry of N-terminally tagged EGFP in SUM159 (iTAG, SD, dTAG); assay type: cell-based, human; settings: SUM159, 4h, normalized values; dTAG-13 for FKBP12 F36V, CC220 for SD and iTAG
Procedure: (§6) The protein lysates were probed for HA using western blotting. […] The protein lysates were probed for HA using western blotting. […] Median EGFP intensity was measured in each condition using flow cytometry. (3 independent experiments, represented as mean ± SD).
As we were finalizing our study on iTAG, a similar IMiD based degron was publish by the Ebert group.[28] The SuperDegron (SD) a 60 amino acid tag based on a chimera of Aiolos/ZFP91 was used to generate degradable chimeric antigen receptors (CAR).[28]
(§7) For the pHAGE-PGK constructs: DCD23, SuperDegron and FKBP12^F36V were separately cloned into a pHAGE-PGK DEST backbone. cDNA encoding the indicated protein was then cloned from pENTR221 into the pHAGE-PGK-DCD23, pHAGE-PGK-SuperDegron or pHAGE-PGK-FKBPF36V DEST vector using Gateway cloning. SUM159 cells were transduced with the indicated lentivirus and selected with puromycin.

[4] = system: cMYC-EGFP-DCD19; assay: Flow cytometry of EGFP signal, cMYC-EGFP-DCD19 in HMEC; assay type: cell-based, human; settings: 10uM, 4h
Text: as §1, §2, §3

[5] = system: N-terminally tagged cMYC, RBM39, BRD4 (Flag-HA-DCD23 or Flag-HA-FKBP12^[F36V]); assay: Western blotting, iTAG versus dTAG fused proteins in SUM159; assay type: cell-based, human
Procedure: The fusion constructs were stably expressed in SUM159 cells and loss of protein was determined by western blotting.
as §6
The dTAG system has also been adapted to direct targets to the E3 CRL2^VHL using the PROTAC dTAG^V-1^16. […] We evaluated the degradation N-terminally tagged cMYC and RBM39 dTAG^V-1, we included BRD4 as a control as it was reported to be a well degraded target in the initial dTAG optimization (Figure 3C).[15]
as §7
as §4, with “Scientific). Proteins were subsequently transferred to an Immobilon-P polyvinylidene Difluoride (PVDF) membrane (Merck Millipore) using the wet-transfer method (Bio-Rad) in a transfer buffer consisting of 20% (v/v) methanol and 10% protein electrophoresis buffer (24.77 mM Tris and 0.192 M glycine).” for “Scientific).”
as §5

With O=C1CCC(N2C(=O)c3ccc(NS(=O)(=O)c4ccccc4OC(F)(F)F)cc3C2=O)C(=O)N1 (stereo not drawn) [StJude6989] the “effect on cellular proteome” value [1] was “no impact”.

With CC(C)C[C@@H](C=O)NC(=O)[C@H](CC(C)C)NC(=O)[C@H](CC(C)C)NC(=O)OCc1ccccc1 [MG132] (Cbz-Leu-Leu-Leu-aldehyde) the “effect on CC220-induced cMYC degradation” value [2] was “inhibited cMYC degradation”.

In the case of “FKBP12^[F36V]: mutant FKBP12 protein tag of the dTAG system, degraded with dTAG-13”, the DC50 [3] is reported as 380 pM and the DCmax [3] is reported as 95%.

With Nc1cccc2c1C(=O)N(C1CCC(=O)NC1=O)C2=O (stereo not drawn) [Pomalidomide] the “loss of cMYC-EGFP signal” value [4] was “robust loss of cMYC-EGFP signal”.

In the case of NS(=O)(=O)OC[C@@H]1C[C@@H](n2ccc3c(N[C@H]4CCc5ccccc54)ncnc32)C[C@@H]1O [MLN4924], the “effect on CC220-induced cMYC degradation” value [2] is reported as “inhibited cMYC degradation”.

In the case of CC[C@H](C(=O)N1CCCC[C@H]1C(=O)O[C@H](CCc1ccc(OC)c(OC)c1)c1ccccc1OCC(=O)NCCCCCCC(=O)N[C@H](C(=O)N1C[C@H](O)C[C@H]1C(=O)N[C@@H](C)c1ccc(-c2scnc2C)cc1)C(C)(C)C)c1cc(OC)c(OC)c(OC)c1 [dTAG^V-1], the “degradation compared between dTAG variants” value ([5]; SUM159, BRD4, cMYC, RBM39, 4h) is reported as “more robust degradation compared to dTAG-13”.

In the case of Cc1nc2cccc(N)c2c(=O)n1C1CCC(=O)NC1=O (stereo not drawn) [CC122, Avadomide], the “loss of cMYC-EGFP signal” value [4] is reported as “robust loss of cMYC-EGFP signal”.

O=C1CCC(N2C(=O)c3ccccc3C2=O)C(=O)N1 (stereo not drawn) [Thalidomide] was tested, and the “loss of cMYC-EGFP signal” value [4] was “robust loss of cMYC-EGFP signal”.

In the case of CC[C@H](C(=O)N1CCCC[C@H]1C(=O)O[C@H](CCc1ccc(OC)c(OC)c1)c1ccccc1OCC(=O)NCCCCCCOc1cccc2c1C(=O)N(C1CCC(=O)NC1=O)C2=O)c1cc(OC)c(OC)c(OC)c1 (stereo partly drawn) [dTAG-13], the “concentrations at which targets are degraded” value ([5]; SUM159, dTAG-13 on dTAG, CC220 on iTAG) is reported as “less pronounced or even not observed at high concentrations” and the “time of onset of degradation of cMYC and RBM39” value ([5]; SUM159, dTAG-13 on dTAG, CC220 on iTAG, 1, 2 or 4h) is reported as “moderate degradation only after 4h”.

O=C1CCC(N2Cc3cc(CNC(=O)C(F)(F)c4ccc(Cl)cc4)ccc3C2=O)C(=O)N1 (stereo not drawn) [CC90009] was tested, and the “effect on cellular proteome” value [1] was “no impact”.
